Test system: zebrafish larvae
Assay: Ammonia excretion as an indicator of locomotor response to electrical stimulus
Assay type: in vivo, Danio rerio
Conditions: MS-222 0.10 mg/mL in media; 30 larvae (4 dpf) per well; stimuli 3 uA, 50 msec, 30 times per hour for 12 hours; colorimetric ammonia assay; FIG. 7
Procedure: To create the graphs in the subsequent Examples, the initial conditions consisted of harvesting fertilized zebrafish eggs and placing them into embryo media and housed in an incubator with a constant temperature of 28.5° C. for the first several days of development, and throughout the course of experimentation. Embryo media consists of ultrapure water with 5 mM NaCl, 0.17 mM KCl, 0.33 mM CaCl2, 0.3 mm MgSO4 added. Embryo media was be used to make all final dilutions of test agents.
After the first 24 hours of incubation, the zebrafish larvae were treated with pronase solution (2 mg/ml in Embryo Medium) for several minutes to remove the larvae from their chorion. […] The 96-well plates were maintained in incubators at 28.5° C. and were removed from incubators only for testing or to refresh media.
Excretion of ammonia is a necessary consequence of protein breakdown. When proteins are converted to carbohydrates to provide energy, the amino group is removed and must be dealt with. In animals, the amino group is quickly oxidized to form ammonia. […] The concentration of ammonia excreted by the larvae was quantified by taking a sample of the media following the Examples and assaying it with a commercially available colorimetric assay kit (Ammonia Assay Kit #A1000, Sigma Biochemical) […]

With `CCOC(=O)c1cccc(N)c1.CS(=O)(=O)O` [MS-222] the “locomotor response of zebrafish to an electrical stimulus, based on excretion of ammonia” value was “decreases the locomotor response”.

Source: patent publication US20090035220A1, “HIGH THROUGHPUT SCREENING SYSTEM AND METHOD” (priority 2007, published 2009)
